{
  "source": "patent US20250064773A1",
  "about": "“TARGETING ERO1 ALPHA WITH AURONE DERIVATIVES” (West Virginia University Board of Governors on behalf of …, priority 2021, published 2025)",
  "key": {"myeloma cells lines": {"system": "myeloma cells lines", "assay": "MTT viability assay, myeloma cell lines", "type": "cell-based"}, "U266": {"system": "U266", "assay": "MTT viability assay, U266", "type": "cell-based", "conditions": "Homo sapiens, U-266, Multiple Myeloma, read-out: IC50 Avg ± s.d. (n = 3), U266", "text": "Cell Lines: PC-9 cell line used was obtained from Sigma Aldrich and grown in RPMI 1640 medium with 10% fetal bovine serum and 1% penicillin/streptomycin. HCC4006, U266, MM1.s, and Beas-2B cell lines were obtained from ATCC and cultured in either RPMI 1640 or DMEM with 10% fetal bovine serum and 1% penicillin/streptomycin. All cell lines were also checked for mycoplasma every six months and subjected to short tandem repeat (STR) analysis for cell line validation. CRISPR Cas9: CRISPR Guide RNA 2 targeting ERO1α and CRISPR Guide RNA 4 were purchased from Genscript in the pLentiCRISPR V2 plasmid containing puromycin/ampicillin selection marker. Lentivirus was made from HEK 293T cells by co-transfection with GuideRNA of interest, pVSVG, and pPAX2 plasmids. […] Plate was then read on the BioTek Cytation 5 at 530/590 nm. […] Plate was then read at 570 nm. Treated wells were all compared to DMSO control wells to calculate percent growth inhibition and the IC50 was calculated using GraphPad (log(inhibitor) vs growth inhibition). […] Images were then quantified using ImageJ. […] Cells were aliquoted at 1 million cells per PCR tube in PBS and heated in Bio-Rad T100 thermal cycler at indicated temperatures (RT, 46° C., 48° C., 50° C., 52° C., 54° C., 56°, 58° C., and 60° C.) for 3 minutes and aggregation temperature was determined by western blot analysis. […]"}},
  "data": [
    {"smiles": "CN(C)c1ccc(/C=C2\\Oc3cc(O)ccc3C2=O)cc1", "note": "[Compound T151742]", "values": [
      {"measurement": "IC50", "setting": "myeloma cells lines", "result": "7 to 9", "unit": "µM"},
      {"measurement": "IC50", "setting": "U266", "result": "8.93 ± 1.13", "unit": "µM"}
    ]}
  ]
}
